Patent publication US20080200564A1, “Copolymers Based on N-Vinylpyrrolidone and Branched Aliphatic Carbonxylic Acids, and Their Use as Solubilizers” (BASF Aktiengesellschaft, priority 2005, published 2008)

Assay: Preparation of solubilizates: content of solubilized active ingredient, measured photometrically
Assay type: physicochemical
Details: pH 7
Experimental: 2 g of the copolymer were weighed into a beaker. Then, one medicament in each case was weighed into the mixture as follows in order to obtain a supersaturated solution. (If the weighed-in mass dissolved in the medium, the initial weight was increased until a sediment formed). […] Phosphate buffer pH 7.0 was then added until solubilizer and phosphate buffer were present in the weight ratio 1:9. […] There then followed a resting time of at least one hour. Following filtration of the mixture, it was measured photometrically and the content of active ingredient was determined.

Substance | content of solubilized active ingredient, Carbamazepine [g/100 ml] | content of solubilized active ingredient, Piroxicam [g/100 ml]
copolymers of N-vinylpyrrolidone/N-vinylcaprolactam/VEOVA 10 (weight ratio 70/20/10) [Example 4] | 0.21 | 0.50
copolymers of N-vinylpyrrolidone/VEOVA 9 (weight ratio 80/20) [Example 2] | 0.17 | 0.54
copolymers of N-vinylpyrrolidone/VEOVA 9 (weight ratio 90/10) [Example 3] | 0.19 | 0.48
